Reference: patent publication US6514964B1, “Fused cycloheptane and fused azacycloheptane compounds and their methods of use” (Amgen Inc., priority 1999, dated 2003)

test system: human umbilical cord endothelial cells (HUVEC); assay: HUVEC proliferation assay and/or HUVEC adhesion assay; assay type: cell-based; details: bound stated for the listed compounds
Description: HUVEC Proliferation Assay
1. Coat 3 NUNC polystyrene 96 well plate (VWR, 62409-120; lids 62409-118) with vitronectin (purified internally), fibronectin (Collaborative Biomed 40008A) or fibrinogen (Calbiochem 341578) 50 ng/well in 50 μl PBS, 1 hr @ RT.
a. rinse with 5 mls PBS (no Ca, Mg)
3. Rinse vitronectin plates 1× in 200 μl PBS −/− and add 3000 cells per well in 100 ul growth medium (EBM2 (Clonetics, CC-3156)+EGM2 bullet kit (CC-4176)).
4. Incubate 24 hours at 37° C. to allow attachment.
5. Remove growth medium and add 100 μl growth medium+drugs (25 μM and down by five fold steps in DMSO-0.25% final DMSO concentration).
6. Incubate for 3 days changing media (+drugs).
7. Remove non-adherent cells on Friday with Raindance 12 well plate washer.
8. Wash twice with 200 μl PBS (+Mg & Ca).
9. Tap out excess liquid.
10. Freeze @ −70° C. for 30 minutes.
11. Thaw plate and add 150 μl CyQuant fluorescent dye (Molecular Probes C-7026).
12. Read after 4 minutes @ 485λ (excitation), 530λ (emission).
1. Coat 2 NUNC polystyrene 96 well plates (VWR, 62409-120; lids 62409-118) with 50 μl vitronectin (purified internally) at 50 ng/well in PBS (−Mg & Ca), for 1 hour @ 37° C.
2. Rinse with PBS & block with 150 μl PBS/1% BSA (Sigma A8918), 1 hour at @ 37° C.
3. Prepare drug dilutions:
a. 400 fold concentrate in 100% DMSO
b. 0.25% DMSO [assay]final
c. 10 mM & down (25 μMfinal & down)
d. dilute 1 μl of 400 fold conc into 200 μl adhesion media
a. rinse with 5 ml PBS (no Ca, Mg)
6. Rinse blocking buffer from assay plate and add 50 μl of drug dilutions.
7. Resuspend cells in adhesion media, count and add 2e4 cells/well in 50 μl (4e5/ml).
8. Incubate 60 minutes @ 37° C.
9. Remove non-adherent cells with Raindance 12 well plate washer.
10. Wash twice with 200 μl PBS (+Mg & Ca)
11. Tap out excess liquid.
12. Freeze @ −70° C. for 30 minutes to overnite.
13. Thaw plate and add 150 μl CyQuant fluorescent dye (Molecular Probes C-7026).
14. Read after 2-5 minutes @ 485λ (excitation), 530λ (emission).
Adhesion medium: Media 199 (which contains […] and 0.8 mM MgSO4), 0.5% BSA, 10 mM HEPES, 1 mM MgCl2, and 1 mM MnCl2

Row | SMILES | IC50 [µM]
1 | O=C(O)CC1CCN(S(=O)(=O)NCCc2ccc3c(n2)NCCC3)Cc2ccccc21 (centres unmarked) [Example 45, 2-(2-(((2-(1,2,3,4-tetrahydropyridino(2,3-b)pyridin-7-yl)ethyl)amino)sulfonyl)-1H,3H,4H,5H-benzo[e]azain-5-yl)acetic acid] | ≤ 30
2 | O=C(O)CCC1CCN(S(=O)(=O)NCCc2ccc3c(n2)NCCC3)Cc2ccccc21 (centres unmarked) [Example 47] | ≤ 30
3 | O=C(O)C[C@H]1CCN(C(=O)NCCCc2ccc3c(n2)NCCC3)Cc2ccccc21 [Example 52, 2-((5R)-2-(N-(3-(1,2,3,4-tetrahydropyridino(2,3-b)pyridin-7-yl)prop-1-yl)carbamoyl)-1H,3H,4H,5H-benzo[e]azapin-5-yl)acetic acid] | ≤ 30
4 | O=C(O)C[C@H]1CCN(C(=O)NCCc2ccc3c(n2)NCCC3)Cc2ccccc21 [Example 53, 2-((5R)-2-(N-(3-(1,2,3,4-tetrahydropyridino(2,3-b)pyridin-7-yl)ethyl)carbamoyl)-1H,3H,4H,5H-benzo[e]azapin-5-yl)acetic acid] | ≤ 30
5 | O=C(O)C[C@@H]1CCN(C(=O)NCCc2ccc3c(n2)NCCC3)Cc2ccccc21 [Example 54, 2-((5S)-2-(N-(3-(1,2,3,4-tetrahydropyridino(2.3-b)pyridin-7-yl)ethyl)carbamoyl)-1H,3H,4H,5H-benzo[e]azapin-5-yl)acetic acid] | ≤ 30
6 | O=C(O)C[C@@H]1CCN(C(=O)CCCc2ccc3c(n2)NCCC3)Cc2ccccc21 [Example 55] | ≤ 30
7 | O=C(O)CC1CCN(C(=O)CCCc2ccc3c(n2)NCCC3)Cc2ccccc21 (centres unmarked) [Example 56, 2-[2-(4-(1,2,3,4-tetrahydropyridino[2,3-b]pyridin-7-yl)butanoyl)-1H,3H,4H,5H-benzo[e]azepin-5-yl]acetic acid] | ≤ 30
8 | O=C(O)CC1Cn2cc(C(=O)NCCc3ccc4c(n3)NCCC4)nc2Cc2ccccc21 (centres unmarked) [Example 63, 2-{2-[N-(2-(1,2,3,4-tetrahydropyridino [2,3-b]pyridin-7-yl)ethyl)carbamoyl]-4H,5H,10H-benzo[d]imidazolo[1,2-a]azepin-5-yl}acetic acid] | ≤ 30
9 | CC(C)N(CCc1ccc2c(n1)NCCC2)C(=O)c1cn2c(n1)Cc1ccccc1C(CC(=O)O)C2 (centres unmarked) [Example 64, 2-{2-[N-(methylethyl)-N-(2-(1,2,3,4-tetrahydropyridino[2,3-b]pyridin-7-yl)ethyl)carbamoyl]-4H,5H,10H-benzo[d]imidazolo[1,2-a]azepin-5-yl}acetic acid] | ≤ 30
10 | CC(C)N(Cc1cnc2c(c1)CCCN2)C(=O)c1cn2c(n1)Cc1ccccc1C(CC(=O)O)C2 (centres unmarked) [Example 65, 2-{2-[N-(methylethyl)-N-(1,2,3,4tetrahydropyridino[2,3-b]pyridine-6-ylmethyl)carbamoyl]-4H,5H,10H-benzo[d]imidazolo[1,2-a]azepin-5-yl}acetic acid] | ≤ 30
11 | O=C(O)CC1Cn2cc(C(=O)NCc3cnc4c(c3)CCCN4)nc2Cc2ccccc21 (centres unmarked) [Example 66, 2-{2-[N-(1,2,3,4-tetrahydropyridino [2,3-b]pyridin-6-ylmethyl)carbamoyl]-4H,5H,10H-benzo[d]imidazolo[1,2-a]azepin-5-yl}acetic acid] | ≤ 30
12 | CN(CCCNc1ccccn1)C(=O)c1cn2c(n1)Cc1ccccc1C(CC(=O)O)C2 (centres unmarked) [Example 67, 2-(2-{N-methyl-N-[3-(2-pyridylamino)propyl]carbamoyl}-4H,5H,10H-benzo[d]imidazolo[1,2-a]azepin-5-yl)acetic acid] | ≤ 30
13 | COc1ccc2c(c1)CN(C(=O)NCCCc1ccc3c(n1)NCCC3)CCC2CC(=O)O (centres unmarked) [Example 71, 2-(8-methoxy-2-(N-(3-(1,2,3,4-tetrahydropyridino[2,3,b]pyridin-7-yl)propyl)carbamoyl)-1H,3H,4H,5H-benzo[e]azaperhydroepin-5-yl) acetic acid] | ≤ 30
14 | O=C(O)CC1CCN(C(=O)NCCCc2ccc3c(n2)NCCC3)Cc2cc(OCc3ccccc3)ccc21 (centres unmarked) [Example 72] | ≤ 30
15 | O=C(O)CC1CCN(C(=O)NCCCc2ccc3c(n2)NCCC3)Cc2cc(-c3ccccc3)ccc21 (centres unmarked) [Example 73, 2-(8-phenyl-2-(N-(3-(1,2,3,4-tetrahydropyridino[2,3,b]pyridin-7-yl)propyl)carbamoyl)-1H,3H,4H,5H-benzo[e]azaperhydroepin-5-yl) acetic acid] | ≤ 30
16 | O=C(O)CC1CCN(C(=O)NCCCCNC2=NCCN2)Cc2ccccc21 (centres unmarked) [Example 75, 2-(2-(N-(4-(4,5-dihydroimidazo-2-yl)aminobut-1-yl)carbamoyl)-1H,3H,4H-5H-benzo[e]azapin-5-yl)acetic acid] | ≤ 30
17 | O=C(O)CC1CCN(C(=O)NCCCc2ccc3c(n2)NCCC3)Cc2cc(Cl)ccc21 (centres unmarked) [Example 78, 2-{8-Chloro-2-[N-(3-(1,2,3,4-tetrahydropyridino[2,3-b]pyridin-7-yl)propyl)carbamoyl]-1H,3H,4H,5H-benzo[e]azepin-5-yl}acetic acid] | ≤ 30
18 | O=C(O)CC1CCN(C(=O)NCCCc2ccc3c(n2)NCCC3)Cc2cc(Br)ccc21 (centres unmarked) [Example 79, 2-{8-Bromo-2-[N-(3-(1,2,3,4-tetrahydropyridino[2,3-b]pyridin-7-yl)propyl)carbamoyl]-1H,3H,4H,5H-benzo[e]azepin-5-yl}acetic acid] | ≤ 30
19 | O=C(O)CC1CCN(C(=O)NCCCc2ccc3c(n2)NCCC3)Cc2cc(Br)c(Br)cc21 (centres unmarked) [Example 80, 2-{7,8-Dibromo-2-[N-(3-(1,2,3,4-tetrahydropyridino[2,3-b]pyridin-7-yl)propyl)carbamoyl]-1H,3H,4H,5 H-benzo[e]azepin-5-yl}acetic acid] | ≤ 30
20 | CS(=O)(=O)Nc1ccc2c(c1)CN(C(=O)NCCCc1ccc3c(n1)NCCC3)CCC2CC(=O)O (centres unmarked) [Example 81, 2-{8-[(Methylsulfonyl)amino]-2-[N-(3-(1,2,3,4-tetrahydropyridino[2,3-b]pyridin-7-yl)Propyl)carbamoyl]-1H,3H,4H,5H-benzo[e]azepin-5-yl}acetic acid] | ≤ 30
21 | O=C(O)CC1CCN(C(=O)NCCCc2ccc3c(n2)NCCC3)Cc2cc(NS(=O)(=O)c3ccccc3)ccc21 (centres unmarked) [Example 82, 2-{8-[(Phenylsulfonyl)amino]-2-[N-(3-(1,2,3,4-tetrahydropyridino[2,3-b]pyridin-7-yl)propyl)carbamoyl]-1H,3H,4H,5H-benzo[e]azepin-5-yl}acetic acid] | ≤ 30
22 | O=CNc1ccc2c(c1)CN(C(=O)NCCCc1ccc3c(n1)NCCC3)CCC2CC(=O)O (centres unmarked) [Example 83, 2-{8-Carbonylamino-2-[N-(3-(1,2,3,4-tetrahydropyridino[2,3-b]pyridin-7-yl)propyl)carbamoyl]-1H,3H,4H,5H-benzo[e]azepin-5-yl}acetic acid] | ≤ 30
23 | CN(C)c1ccc2c(c1)CN(C(=O)NCCCc1ccc3c(n1)NCCC3)CCC2CC(=O)O (centres unmarked) [Example 84, 2-{8-(Dimethylamino)-2-[N-(3-(1,2,3,4-tetrahydropyridino[2,3-b]pyridin-7-yl)propyl)carbamoyl]-1H,3H,4H,5H-benzo[e]azepin-5-yl}acetic acid] | ≤ 30
